Measurements from patent US20240252488A1 (KOREA RESEARCH INSTITUTE OF CHEMICAL TECHNOLOGY, priority 2020, published 2024).

Experiments:
[1] = biological target: T1, MLKL (Homo sapiens, UniProt Q8NB16); assay: MLKL degradation assay in HepG2 cell line (western blot); type: cell-based; parameters: endogenous in cells; host or cells: HepG2 or HaCaT; settings: cell line not given; for Degradation assay (Degradation %) 1 μM: compound 1 μM; for Degradation assay (Degradation %) 10 μM: compound 10 μM
T1 sequence (Q8NB16 1-471): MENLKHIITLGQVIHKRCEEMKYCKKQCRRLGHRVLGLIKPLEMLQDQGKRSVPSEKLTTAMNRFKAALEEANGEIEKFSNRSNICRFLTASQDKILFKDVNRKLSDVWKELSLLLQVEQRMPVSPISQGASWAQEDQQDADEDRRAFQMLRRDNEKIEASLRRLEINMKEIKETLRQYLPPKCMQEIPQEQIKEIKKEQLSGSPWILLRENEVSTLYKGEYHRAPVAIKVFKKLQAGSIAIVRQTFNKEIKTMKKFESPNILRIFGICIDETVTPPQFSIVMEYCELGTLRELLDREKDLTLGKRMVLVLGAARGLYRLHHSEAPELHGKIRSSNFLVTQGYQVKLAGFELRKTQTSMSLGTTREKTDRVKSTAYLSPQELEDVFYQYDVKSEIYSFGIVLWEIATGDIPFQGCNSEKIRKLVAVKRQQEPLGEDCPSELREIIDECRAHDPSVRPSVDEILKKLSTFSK
How it was run: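 HepG2, cpd final 1 or 10 μM, 20-24 h, 37 °C/5% CO2; RIPA lysis, BCA-normalized, 10-15 μg/lane SDS-PAGE, western blot, ECL read-out.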

[2] = test system: FADD−/− Jurkat cells; assay: Necroptosis inhibition assay, TNF-α-induced necroptosis (CellTiter-Glo 2.0); type: cell-based, human; settings: TNF-α 15 ng/mL; for Necroptosis inhibition assay (Rescue %) 1 μM: compound 1 μM; for Necroptosis inhibition assay (Rescue %) 10 μM: compound 10 μM
How it was run: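 Cmpd 0.1/1/10 μM final, 30 min RT preincubation; TNF-α 15 ng/mL final; 20–24 h, 37° C, 5% CO2. Readout: ATP luminescence (reagent 1:3 in PBS), 0.5 s/well. Cytotoxicity and % necroptosis inhibition calculated from signal.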

[3] = biological target: T1, MLKL; assay: Measurement of binding affinity with MLKL receptor (competitive binding assay, Kd); parameters: made in house; host or cells: HEK 293 cell line (T7 phage in E. coli BL21-derived host is also described)
How it was run: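 qPCR of MLKL eluted from liganded beads served as the read-out, from which Kd was derived. The protein was made in HEK 293 cells with a DNA tag, and test compounds competed with the bead-bound ligand at 0.9% final DMSO.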

| Structure (SMILES) | Degradation assay (Degradation %) 1 μM [1] | Degradation assay (Degradation %) 10 μM [1] | Kd [3] | Necroptosis inhibition assay (Rescue %) 1 μM [2] | Necroptosis inhibition assay (Rescue %) 10 μM [2] | Necroptosis inhibition assay (Rescue %) 1 μM ([2]; FADD−/− Jurkat cells) | Necroptosis inhibition assay (Rescue %) 10 μM ([2]; FADD−/− Jurkat cells) |
| --- | --- | --- | --- | --- | --- | --- | --- |
| Cc1ncsc1-c1ccc(CNC(=O)[C@@H]2C[C@@H](O)CN2C(=O)[C@@H](NC(=O)CN2CCC(CN3CCC(n4cc(-c5cnc(N)c(C(=O)O[C@@H](C(=O)Nc6ccc(F)cc6)c6ccccc6)n5)cn4)CC3)CC2)C(C)(C)C)cc1 [TDH-211, (R)-2-((4-fluorophenyl)amino)-2-oxo-1-phenylethyl 3-amino-6-(1-(1-((1-(2-(((S)-1-((2S,4R)-4-hydroxy-2-((4-(4-methylthiazol-5-yl)benzyl)carbamoyl)pyrrolidin-1-yl)-3,3-dimethyl-1-oxobutan-2-yl)amino)-2-oxoethyl)piperidin-4-yl)methyl)piperidin-4-yl)-1H-pyrazol-4-yl)pyrazine-2-carboxylate] | 9.7% | 29.62% | 6.3 nM | 29.87% | 41.58% |  |  |
| Nc1ncc(-c2cnn(C3CCN(CCCN4CCN(c5cccc6c5C(=O)N(C5CCC(=O)NC5=O)C6=O)CC4)CC3)c2)nc1C(=O)OC(C(=O)Nc1ccc(F)cc1)c1ccccc1 (stereo not shown) [TDH-245, 2-((4-fluorophenyl)amino)-2-oxo-1-phenylethyl 3-amino-6-(1-(1-(3-(4-(2-(2,6-dioxopiperidin-3-yl)-1,3-dioxoisoindolin-4-yl)piperazin-1-yl)propyl)piperidin-4-yl)-1H-pyrazol-4-yl)pyrazine-2-carboxylate] | 67.67% | 62.75% | 3.6 nM | 65.75% | 14.51% |  |  |
| Nc1ncc(-c2cnn(C3CCN(CCOC4CCN(C(=O)CC5CCN(c6cccc7c6C(=O)N(C6CCC(=O)NC6=O)C7=O)CC5)CC4)CC3)c2)nc1C(=O)O[C@@H](C(=O)Nc1ccc(F)cc1)c1ccccc1 (stereo partly drawn) [TDH-371, (R)-2-((4-fluorophenyl)amino)-2-oxo-1-phenylethyl 3-amino-6-(1-(1-(2-((1-(2-(1-(2-(2,6-dioxopiperidin-3-yl)-1,3-dioxoisoindolin-4-yl)piperidin-4-yl)acetyl)piperidin-4-yl)oxy)ethyl)piperidin-4-yl)-1H-pyrazol-4-yl)pyrazine-2-carboxylate] | 82.38% | 83.26% | 3.7 nM | 35.76% | 25.74% |  |  |
| Nc1ncc(-c2cnn(C3CCN(CC4CCN(C(=O)C5CCN(c6cccc7c6C(=O)N(C6CCC(=O)NC6=O)C7=O)CC5)CC4)CC3)c2)nc1C(=O)O[C@@H](C(=O)Nc1ccc(F)cc1)c1ccccc1 (stereo partly drawn) [TDH-146, (R)-2-((4-fluorophenyl)amino)-2-oxo-1-phenylethyl 3-amino-6-(1-(1-((1-(1-(2-(2,6-dioxopiperidin-3-yl)-1,3-dioxoisoindolin-4-yl)piperidine-4-carbonyl)piperidin-4-yl)methyl)piperidin-4-yl)-1H-pyrazol-4-yl)pyrazine-2-carboxylate] | 65.04% | 60.65% | 5.4 nM | 42.2% | 9.61% |  |  |
| Nc1ncc(-c2cnn(C3CCN(C(=O)CC4CCN(c5ccc6c(c5)C(=O)N(C5CCC(=O)NC5=O)C6=O)CC4)CC3)c2)nc1C(=O)O[C@@H](C(=O)Nc1ccc(F)cc1)c1ccccc1 (stereo partly drawn) [TDH-344, (R)-2-((4-fluorophenyl)amino)-2-oxo-1-phenylethyl 3-amino-6-(1-(1-(2-(1-(2-(2,6-dioxopiperidin-3-yl)-1,3-dioxoisoindolin-5-yl)piperidin-4-yl)acetyl)piperidin-4-yl)-1H-pyrazol-4-yl)pyrazine-2-carboxylate] | 64.15% | 47.75% | 13 nM | 14.48% | 17.63% |  |  |
| Nc1ncc(-c2cnn(C3CCN(C(=O)COC4CCN(C(=O)CNc5ccc6c(c5)C(=O)N(C5CCC(=O)NC5=O)C6=O)CC4)CC3)c2)nc1C(=O)O[C@@H](C(=O)Nc1ccc(F)cc1)c1ccccc1 (stereo partly drawn) [TDH-396, (R)-2-((4-fluorophenyl)amino)-2-oxo-1-phenylethyl 3-amino-6-(1-(1-(2-((1-((2-(2,6-dioxopiperidin-3-yl)-1,3-dioxoisoindolin-5-yl)glycyl)piperidin-4-yl)oxy)acetyl)piperidin-4-yl)-1H-pyrazol-4-yl)pyrazine-2-carboxylate] | 3.42% | 88.49% | 4.2 nM | 53.20% | 46.28% |  |  |

Further compounds by falling Kd [3], results first:

| Degradation assay (Degradation %) 1 μM [1] | Degradation assay (Degradation %) 10 μM [1] | Kd [3] | Structure (SMILES) | Necroptosis inhibition assay (Rescue %) 1 μM [2] | Necroptosis inhibition assay (Rescue %) 10 μM [2] | Necroptosis inhibition assay (Rescue %) 1 μM ([2]; FADD−/− Jurkat cells) | Necroptosis inhibition assay (Rescue %) 10 μM ([2]; FADD−/− Jurkat cells) |
| --- | --- | --- | --- | --- | --- | --- | --- |
| 77.5% | 61.88% | 3.5 nM | Nc1ncc(-c2cnn(C3CCN(C(=O)C4CCN(C(=O)C5CCN(c6cccc7c6C(=O)N(C6CCC(=O)NC6=O)C7=O)CC5)CC4)CC3)c2)nc1C(=O)OC(C(=O)Nc1ccc(F)cc1)c1ccccc1 (stereo not shown) [TDH-273, 2-((4-fluorophenyl)amino)-2-oxo-1-phenylethyl 3-amino-6-(1-(1-(1-(1-(2-(2,6-dioxopiperidin-3-yl)-1,3-dioxoisoindolin-4-yl)piperidine-4-carbonyl)piperidine-4-carbonyl)piperidin-4-yl)-1H-pyrazol-4-yl)pyrazine-2-carboxylate] | 54.02% | 34.08% |  |  |
| 87.84% | 63.85% | 3.5 nM | Nc1ncc(-c2cnn(C3CCN(C(=O)CCC4CCN(C(=O)C5CCN(c6cccc7c6C(=O)N(C6CCC(=O)NC6=O)C7=O)CC5)CC4)CC3)c2)nc1C(=O)O[C@@H](C(=O)Nc1ccc(F)cc1)c1ccccc1 (stereo partly drawn) [TDH-417, (R)-2-((4-fluorophenyl)amino)-2-oxo-1-phenylethyl 3-amino-6-(1-(1-(3-(1-(1-(2-(2,6-dioxopiperidin-3-yl)-1,3-dioxoisoindolin-4-yl)piperidine-4-carbonyl)piperidin-4-yl)propanoyl)piperidin-4-yl)-1H-pyrazol-4-yl)pyrazine-2-carboxylate] |  |  | 24.41% | 14.37% |
| 36.7% | 60.91% | 1.7 nM | Nc1ncc(-c2cnn(C3CCN(CCOCCOCCNC(=O)COc4ccc5c(c4)C(=O)N(C4CCC(=O)NC4=O)C5=O)CC3)c2)nc1C(=O)O[C@@H](C(=O)Nc1ccc(F)cc1)c1ccccc1 (stereo partly drawn) [TDH-167, (R)-2-((4-fluorophenyl)amino)-2-oxo-1-phenylethyl 3-amino-6-(1-(1-(2-(2-(2-(2-((2-(2,6-dioxopiperidin-3-yl)-1,3-dioxoisoindolin-5-yl)oxy)acetamido)ethoxy)ethoxy)ethyl)piperidin-4-yl)-1H-pyrazol-4-yl)pyrazine-2-carboxylate] | 45.5% | 38.58% |  |  |
| 85.29% | 65.91% | 1.1 nM | Nc1ncc(-c2cnn(C3CCN(C(=O)C4CCN(C(=O)C5CCN(c6ccc7nnn(C8CCC(=O)NC8=O)c(=O)c7c6)CC5)CC4)CC3)c2)nc1C(=O)O[C@@H](C(=O)Nc1ccc(F)cc1)c1ccccc1 (stereo partly drawn) [TDH-410, (R)-2-((4-fluorophenyl)amino)-2-oxo-1-phenylethyl 3-amino-6-(1-(1-(1-(1-(3-(2,6-dioxopiperidin-3-yl)-4-oxo-3,4-dihydrobenzo[d][1,2,3]triazin-6-yl)piperidine-4-carbonyl)piperidine-4-carbonyl)piperidin-4-yl)-1H-pyrazol-4-yl)pyrazine-2-carboxylate] |  |  | 48.51% | 27.36% |
| 89.29% | 86.88% | 0.26 nM | COc1ccc(C(=O)N2CCC(CN3CCN(CCCN4CCC(n5cc(-c6cnc(N)c(C(=O)O[C@@H](C(=O)Nc7ccc(F)cc7)c7ccccc7)n6)cn5)CC4)CC3)CC2)cc1N1CCC(=O)NC1=O [TDH-478, (R)-2-((4-fluorophenyl)amino)-2-oxo-1-phenylethyl 3-amino-6-(1-(1-(3-(4-((1-(3-(2,4-dioxotetrahydropyrimidin-1(2H)-yl)-4-methoxybenzoyl)piperidin-4-yl)methyl)piperazin-1-yl)propyl)piperidin-4-yl)-1H-pyrazol-4-yl)pyrazine-2-carboxylate] |  |  | 92.11% | 43.19% |
